# From article PMC12463027, “KRAS/ABHD17C/ALOX15B Axis Promotes Pancreatic Cancer Progression via Ferroptosis Evasion” (Advanced Science, 2025)
# B1: recombinant DCAF10 (natural protein, UniProt Q5QP82 1-559, looked up)
# chain: MFPFGPHSPGGDGSAGAGAEEPTPHEGQAAATGPPSPLHPGADATHPPPPARSPRRPGAPSLSPAPRSGELGLPGAPESSTASAPGEPSPPSPPCRRPGPDCRAKSRGRHGLGAGLGGPGARLFGWLKERSLGRGLFVDPARDNFRTMTSLYGSIHPADSVYLSTRTHGAVFNLEYSPDGSVLTVACEQTEVLLFDPISSKHIKTLSEAHEDCVNNIRFLDNRLFATCSDDTTIALWDLRKLNTKVCTLHGHTSWVKNIEYDTNTRLLVTSGFDGNVIIWDTNRYTEDGCPHKKFFHTRFLMRMRLTPDCSKMLISTSSGYLLILHDLDLTKSLEVGSYPILRARRTTSSSDLTTSSSSSGPRVSGSPCHHSDSNSSEKHMSRASQREGVSPRNSLEVVTPEVLGESDHGNCITSLQLHPKGWATLLRCSSNSDDEECTCVYEFQEGAPVRPVSPRCSLRLTHYIEEANVGRGYIKELCFSPDGRMISSPHGYGIRLLGFDKQCSELVDCLPKEASPLRVIRSLYSHNDVVLTTKFSPTHCQIASGCLSGRVSLYQPKF
# notes: DCAF10, recombinant
# Columns and labels:
# p-ABHD17C = target: T1, p-ABHD17C (Homo sapiens, UniProt Q6PCB6); assay: SPR (Biacore); co-IP in cells shows disruption of the ABHD17C/ALOX15B interaction; assay type: binding
# T1 sequence (Q6PCB6 1-329): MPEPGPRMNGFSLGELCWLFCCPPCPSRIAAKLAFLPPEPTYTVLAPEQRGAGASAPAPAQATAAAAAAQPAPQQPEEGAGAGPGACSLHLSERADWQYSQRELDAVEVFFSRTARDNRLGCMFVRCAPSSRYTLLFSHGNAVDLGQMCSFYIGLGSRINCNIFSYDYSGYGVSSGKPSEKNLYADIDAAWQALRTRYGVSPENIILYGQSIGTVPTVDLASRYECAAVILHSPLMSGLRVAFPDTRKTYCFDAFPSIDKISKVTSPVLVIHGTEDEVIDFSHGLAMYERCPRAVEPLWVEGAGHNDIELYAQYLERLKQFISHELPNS
# [1] = target: T2, ALOX15B immobilised for SPR (human, UniProt O15296 1-676); assay: SPR; ALOX15B immobilised on a Series S Sensor Chip, DCAF10 as analyte; conditions: both partners purified
# T2 construct: ALOX15B, human
# T2 sequence (looked up): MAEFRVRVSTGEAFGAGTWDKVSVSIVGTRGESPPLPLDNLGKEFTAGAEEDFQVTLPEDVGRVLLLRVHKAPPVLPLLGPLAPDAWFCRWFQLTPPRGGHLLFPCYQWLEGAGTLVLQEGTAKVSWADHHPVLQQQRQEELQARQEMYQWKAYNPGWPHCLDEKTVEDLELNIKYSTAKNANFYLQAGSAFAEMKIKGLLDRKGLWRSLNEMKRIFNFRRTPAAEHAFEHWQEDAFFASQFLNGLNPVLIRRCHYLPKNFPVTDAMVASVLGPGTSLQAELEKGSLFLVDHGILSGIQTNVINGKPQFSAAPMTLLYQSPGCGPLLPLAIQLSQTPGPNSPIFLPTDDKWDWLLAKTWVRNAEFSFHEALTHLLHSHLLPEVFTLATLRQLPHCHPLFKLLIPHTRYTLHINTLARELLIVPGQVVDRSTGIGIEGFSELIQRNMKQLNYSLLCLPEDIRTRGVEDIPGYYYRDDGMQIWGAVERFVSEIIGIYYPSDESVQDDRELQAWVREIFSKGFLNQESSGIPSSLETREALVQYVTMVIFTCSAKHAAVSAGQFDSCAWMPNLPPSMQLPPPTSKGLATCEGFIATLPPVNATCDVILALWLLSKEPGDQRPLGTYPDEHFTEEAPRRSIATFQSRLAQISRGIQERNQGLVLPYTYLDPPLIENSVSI
Molecule,Kd (p-ABHD17C) [nM],Kd [1] [nM]
CO[C@]1(CC[C@@H](C)CO[C@@H]2O[C@H](CO)[C@@H](O)[C@H](O)[C@H]2O)O[C@H]2C[C@H]3[C@@H]4CC=C5C[C@@H](O[C@@H]6O[C@H](CO)[C@@H](O[C@@H]7O[C@@H](C)[C@H](O)[C@@H](O)[C@H]7O)[C@H](O)[C@H]6O[C@@H]6O[C@@H](C)[C@H](O)[C@@H](O)[C@H]6O)CC[C@]5(C)[C@H]4CC[C@]3(C)[C@H]2[C@@H]1C [methyl protodioscin],4800,–
B1,–,6.96
